Results published in US8404708B2, “Dual NK1/NK3 receptor antagonists” (Hoffmann-La Roche Inc., priority 2004, dated 2013).

Experiments:
human NK1 receptor = human NK1 receptor (Homo sapiens, UniProt P25103); test: NK1 receptor binding, [3H]substance P displacement, CHO cell membranes; conditions: first value of the cell NK1/NK3; read-out: pKi NK1 (converted)
[1] = target: T1, Recombinant human NK3 (hNK3) receptor (Homo sapiens, UniProt P29371); test: NK3 receptor binding, [3H]SR142801 displacement, membrane preparations; conditions: second value of the cell NK1/NK3; read-out: pKi NK3 (converted)
T1 construct: expressed in transfected cells
T1 sequence (P29371 1-465): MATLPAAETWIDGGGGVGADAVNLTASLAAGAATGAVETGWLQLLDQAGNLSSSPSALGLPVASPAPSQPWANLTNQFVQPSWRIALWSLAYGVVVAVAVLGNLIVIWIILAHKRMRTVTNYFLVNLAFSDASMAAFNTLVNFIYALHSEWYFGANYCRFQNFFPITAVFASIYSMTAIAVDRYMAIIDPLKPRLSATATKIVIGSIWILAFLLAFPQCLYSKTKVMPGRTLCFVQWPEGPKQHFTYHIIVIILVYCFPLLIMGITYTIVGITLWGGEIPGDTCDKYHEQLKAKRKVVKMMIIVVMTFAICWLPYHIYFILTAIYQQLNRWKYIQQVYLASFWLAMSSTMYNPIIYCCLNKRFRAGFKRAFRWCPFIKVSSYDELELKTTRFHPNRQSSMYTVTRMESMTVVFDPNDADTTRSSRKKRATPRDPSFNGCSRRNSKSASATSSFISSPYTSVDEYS
Summary of the method: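 Room-temperature, 90-min filtration binding assay using about 2.5 μg recombinant receptor membranes per well; separation on polyethyleneimine-treated glass-fibre (GF/C) filters and liquid scintillation read-out, with 10 μM SB222200 for nonspecific binding.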

human NK1 receptor, sequence (P25103 whole entry): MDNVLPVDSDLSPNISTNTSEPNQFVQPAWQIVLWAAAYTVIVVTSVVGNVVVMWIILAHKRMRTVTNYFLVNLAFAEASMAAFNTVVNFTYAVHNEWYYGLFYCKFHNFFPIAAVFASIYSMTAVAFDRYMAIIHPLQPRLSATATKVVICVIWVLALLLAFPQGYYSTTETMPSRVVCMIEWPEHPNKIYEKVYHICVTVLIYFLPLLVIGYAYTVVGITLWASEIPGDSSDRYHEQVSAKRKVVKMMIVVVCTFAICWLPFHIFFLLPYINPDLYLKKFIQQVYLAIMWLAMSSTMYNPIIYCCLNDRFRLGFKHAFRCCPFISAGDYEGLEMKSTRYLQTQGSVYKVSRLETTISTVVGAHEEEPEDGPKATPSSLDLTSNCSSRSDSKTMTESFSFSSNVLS

Row | Ki (human NK1 receptor) [nM] | Ki [1] [nM] | SMILES
1 | 1.48 | 2.14 | CN(C(=O)C(C)(C)c1cc(C(F)(F)F)cc(C(F)(F)F)c1)c1cnc(N2CC[C@H](O)[C@H]2CO)cc1-c1ccccc1F [Example 264, (2R,3S)-2-(3,5-Bis-trifluoromethyl-phenyl)-N-[4-(2-fluoro-phenyl)-6-(3-hydroxy-2-hydroxymethyl-pyrrolidin-1-yl)-pyridin-3-yl]-N-methyl-isobutyramide]
2 | 1.45 | 4.9 | CN(C(=O)C(C)(C)c1cc(C(F)(F)F)cc(C(F)(F)F)c1)c1cnc(N2CC[C@H](O)[C@H]2CO)cc1-c1ccccc1 [Example 265, (2R,3S)-2-(3,5-Bis-trifluoromethyl-phenyl)-N-[6-(3-hydroxy-2-hydroxymethyl-pyrrolidin-1-yl)-4-phenyl-pyridin-3-yl]-N-methyl-isobutyramide]
3 | 1.2 | 3.8 | CN(C(=O)C(C)(C)c1cc(C(F)(F)F)cc(C(F)(F)F)c1)c1cnc(N2CC[C@H](O)[C@H]2CO)cc1-c1ccc(F)cc1 [Example 266, (2R,3S)-2-(3,5-Bis-trifluoromethyl-phenyl)-N-[4-(4-fluoro-phenyl)-6-(3-hydroxy-2-hydroxymethyl-pyrrolidin-1-yl)-pyridin-3-yl]-N-methyl-isobutyramide]
4 | 3.63 | 28.8 | Cc1ccc(-c2cc(N3CC[C@H](O)[C@H]3CO)ncc2N(C)C(=O)C(C)(C)c2cc(C(F)(F)F)cc(C(F)(F)F)c2)cc1 [Example 267, (2R,3S)-2-(3,5-Bis-trifluoromethyl-phenyl)-N-[6-(3-hydroxy-2-hydroxymethyl-pyrrolidin-1-yl)-4-p-tolyl-pyridin-3-yl]-N-methyl-isobutyramide]
5 | 2.29 | 2.4 | CN(C(=O)C(C)(C)c1cc(C(F)(F)F)cc(C(F)(F)F)c1)c1cnc(N2CC[C@H](O)[C@H]2CO)cc1-c1ccc(Cl)c(Cl)c1 [Example 268, (2R,3S)-2-(3,5-Bis-trifluoromethyl-phenyl)-N-[4-(3,4-dichloro-phenyl)-6-(3-hydroxy-2-hydroxymethyl-pyrrolidin-1-yl)-pyridin-3-yl]-N-methyl-isobutyramide]
6 | 1.86 | 3.55 | CN(C(=O)C(C)(C)c1cc(C(F)(F)F)cc(C(F)(F)F)c1)c1cnc(N2CC[C@H](O)[C@H]2CO)cc1-c1cccc(Cl)c1 [Example 269, (2R,3S)-2-(3,5-Bis-trifluoromethyl-phenyl)-N-[4-(3-chloro-phenyl)-6-(3-hydroxy-2-hydroxymethyl-pyrrolidin-1-yl)-pyridin-3-yl]-N-methyl-isobutyramide]
7 | 2.63 | 2.19 | CN(C(=O)C(C)(C)c1cc(C(F)(F)F)cc(C(F)(F)F)c1)c1cnc(N2CC[C@H](O)[C@H]2CO)cc1-c1cc(Cl)ccc1Cl [Example 270, (2R,3S)-2-(3,5-Bis-trifluoromethyl-phenyl)-N-[4-(2,5-dichloro-phenyl)-6-(3-hydroxy-2-hydroxymethyl-pyrrolidin-1-yl)-pyridin-3-yl]-N-methyl-isobutyramide]
8 | 3.02 | 1.38 | CN(C(=O)C(C)(C)c1cc(C(F)(F)F)cc(C(F)(F)F)c1)c1cnc(N2CC[C@H](O)[C@H]2CO)cc1-c1cccc(Cl)c1Cl [Example 271, (2R,3S)-2-(3,5-Bis-trifluoromethyl-phenyl)-N-[4-(2,3-dichloro-phenyl)-6-(3-hydroxy-2-hydroxymethyl-pyrrolidin-1-yl)-pyridin-3-yl]-N-methyl-isobutyramide]
9 | 2 | 1.1 | CN(C(=O)C(C)(C)c1cc(C(F)(F)F)cc(C(F)(F)F)c1)c1cnc(N2CC[C@H](O)[C@H]2CO)cc1-c1ccc(F)cc1Cl [Example 272, (2R,3S)-2-(3,5-Bis-trifluoromethyl-phenyl)-N-[4-(2-chloro-4-fluoro-phenyl)-6-(3-hydroxy-2-hydroxymethyl-pyrrolidin-1-yl)-pyridin-3-yl]-N-methyl-isobutyramide]
10 | 1.45 | 1.55 | CN(C(=O)C(C)(C)c1cc(C(F)(F)F)cc(C(F)(F)F)c1)c1cnc(N2CC[C@H](O)[C@H]2CO)cc1-c1ccc(F)cc1C=O [Example 273, (2R,3S)-2-(3,5-Bis-trifluoromethyl-phenyl)-N-[4-(4-fluoro-2-formyl-phenyl)-6-(3-hydroxy-2-hydroxymethyl-pyrrolidin-1-yl)-pyridin-3-yl]-N-methyl-isobutyramide]
11 | 1.29 | 1.51 | CN(C(=O)C(C)(C)c1cc(C(F)(F)F)cc(C(F)(F)F)c1)c1cnc(N2CC[C@H](O)[C@H]2CO)cc1-c1ccc(F)cc1CO [Example 274, (2R,3S)-2-(3,5-Bis-trifluoromethyl-phenyl)-N-[4-(4-fluoro-2-hydroxymethyl-phenyl)-6-(3-hydroxy-2-hydroxymethyl-pyrrolidin-1-yl)-pyridin-3-yl]-N-methyl-isobutyramide]
12 | 1.48 | 0.575 | Cc1c(F)cccc1-c1cc(N2CC[C@H](O)[C@H]2CO)ncc1N(C)C(=O)C(C)(C)c1cc(C(F)(F)F)cc(C(F)(F)F)c1 [Example 275, (2R,3S)-2-(3,5-Bis-trifluoromethyl-phenyl)-N-[4-(3-fluoro-2-methyl-phenyl)-6-(3-hydroxy-2-hydroxymethyl-pyrrolidin-1-yl)-pyridin-3-yl]-N-methyl-isobutyramide]
13 | 1.45 | 1.38 | Cc1ccc(F)cc1-c1cc(N2CC[C@H](O)[C@H]2CO)ncc1N(C)C(=O)C(C)(C)c1cc(C(F)(F)F)cc(C(F)(F)F)c1 [Example 276, (2R,3S)-2-(3,5-Bis-trifluoromethyl-phenyl)-N-[4-(5-fluoro-2-methyl-phenyl)-6-(3-hydroxy-2-hydroxymethyl-pyrrolidin-1-yl)-pyridin-3-yl]-N-methyl-isobutyramide]
14 | 1.48 | 2.45 | CN(C(=O)C(C)(C)c1cc(C(F)(F)F)cc(C(F)(F)F)c1)c1cnc(N2CC[C@H](O)[C@H]2CO)cc1-c1cc(F)ccc1F [Example 277, (2R,3S)-2-(3,5-Bis-trifluoromethyl-phenyl)-N-[4-(2,5-difluoro-phenyl)-6-(3-hydroxy-2-hydroxymethyl-pyrrolidin-1-yl)-pyridin-3-yl]-N-methyl-isobutyramide]
15 | 0.813 | 2.69 | Cc1ncccc1-c1cc(N2CC[C@H](O)[C@H]2CO)ncc1N(C)C(=O)C(C)(C)c1cc(C(F)(F)F)cc(C(F)(F)F)c1 [Example 278, (2R,3S)-2-(3,5-Bis-trifluoromethyl-phenyl)-N-[6′-(3-hydroxy-2-hydroxymethyl-pyrrolidin-1-yl)-2-methyl-[3,4′]bipyridinyl-3′-yl]-N-methyl-isobutyramide]
16 | 2.82 | 1.17 | Cc1ccccc1-c1cc(N2CCC[C@H]2CO)ncc1N(C)C(=O)C(C)(C)c1cc(C(F)(F)F)cc(C(F)(F)F)c1 [Example 279, (S)-2-(3,5-Bis-trifluoromethyl-phenyl)-N-[6-(2-hydroxymethyl-pyrrolidin-1-yl)-4-o-tolyl-pyridin-3-yl]-N-methyl-isobutyramide]
17 | 1.82 | 1.86 | COc1ccccc1-c1cc(N2CCC[C@H]2CO)ncc1N(C)C(=O)C(C)(C)c1cc(C(F)(F)F)cc(C(F)(F)F)c1 [Example 280, (S)-2-(3,5-Bis-trifluoromethyl-phenyl)-N-[6-(2-hydroxymethyl-pyrrolidin-1-yl)-4-(2-methoxy-phenyl)-pyridin-3-yl]-N-methyl-isobutyramide]
18 | 3.47 | 1.82 | CN(C(=O)C(C)(C)c1cc(C(F)(F)F)cc(C(F)(F)F)c1)c1cnc(N2CCC[C@H]2CO)cc1-c1ccccc1Br [Example 281, (S)-2-(3,5-Bis-trifluoromethyl-phenyl)-N-[4-(2-bromo-phenyl)-6-(2-hydroxymethyl-pyrrolidin-1-yl)-pyridin-3-yl]-N-methyl-isobutyramide]
19 | 3.09 | 2.24 | CN(C(=O)C(C)(C)c1cc(C(F)(F)F)cc(C(F)(F)F)c1)c1cnc(N2CCC[C@H]2CO)cc1-c1ccccc1F [Example 282, (S)-2-(3,5-Bis-trifluoromethyl-phenyl)-N-[4-(2-fluoro-phenyl)-6-(2-hydroxymethyl-pyrrolidin-1-yl)-pyridin-3-yl]-N-methyl-isobutyramide]
20 | 2.82 | 1.48 | CN(C(=O)C(C)(C)c1cc(C(F)(F)F)cc(C(F)(F)F)c1)c1cnc(N2CCC[C@H]2CO)cc1-c1ccc(Cl)cc1Cl [Example 283, (S)-2-(3,5-Bis-trifluoromethyl-phenyl)-N-[4-(2,4-dichloro-phenyl)-6-(2-hydroxymethyl-pyrrolidin-1-yl)-pyridin-3-yl]-N-methyl-isobutyramide]
21 | 1.48 | 1.45 | CN(C(=O)C(C)(C)c1cc(C(F)(F)F)cc(C(F)(F)F)c1)c1cnc(N2CCC[C@H]2CO)cc1-c1cc(Cl)ccc1Cl [Example 284, (S)-2-(3,5-Bis-trifluoromethyl-phenyl)-N-[4-(2,5-dichloro-phenyl)-6-(2-hydroxymethyl-pyrrolidin-1-yl)-pyridin-3-yl]-N-methyl-isobutyramide]
